In experiment [1] the target is T1, KDR(h) (Homo sapiens, UniProt P35968).
T1 construct: purchased Eurofins, Dundee, Scotland
Put plainly: kinase profile, radiometric assay, KDR. It is filed as biochemical. On the procedure: (§1) Enzymatic biochemical activities were evaluated in radiometric protein kinase assays (Eurofins, Dundee, Scotland). Kinases are incubated with buffer, substrate and [γ-^33P]-ATP (specific activity approx. 500 cpm/pmol, concentration as required). The reaction is initiated by the addition of the MgATP mix. After incubation for 40 minutes at room temperature, the reaction is stopped by the addition of 3% phosphoric acid solution. 10 μL of the reaction is then spotted onto a P30 filtermat and washed three times for 5 minutes in 75 mM phosphoric acid and once in methanol prior to drying and scintillation counting.
(§2) All compounds are prepared to 50× final assay concentration in 100% DMSO. Positive control wells contain all components of the reaction with 2% DMSO. Blank wells contain all components of the reaction, with a reference inhibitor replacing the compound of interest. Each kinase is assigned a standard assay concentration of ATP within 20 μM of its apparent KM. Compounds were screened at 1 μM in duplicate or tested at 10 concentrations at half log dilution starting from 10 μM in singlicate. Dose response curves were fitted with four parameter logistic curve to obtain IC50 values. The average coefficient of variation (CV) of the conducted assay is 4.4%.

Experiment [2] has as its target T2, B-Raf(h) (Homo sapiens, UniProt P15056).
T2 construct: purchased Eurofins, Dundee, Scotland
Put plainly: kinase profile, radiometric assay, B-Raf. It is filed as biochemical. As to the method: as §1, §2

Experiment [3] has as its target T3, JAK3(h) (Homo sapiens, UniProt P52333).
T3 construct: purchased Eurofins, Dundee, Scotland
T3 sequence (P52333 1-1124): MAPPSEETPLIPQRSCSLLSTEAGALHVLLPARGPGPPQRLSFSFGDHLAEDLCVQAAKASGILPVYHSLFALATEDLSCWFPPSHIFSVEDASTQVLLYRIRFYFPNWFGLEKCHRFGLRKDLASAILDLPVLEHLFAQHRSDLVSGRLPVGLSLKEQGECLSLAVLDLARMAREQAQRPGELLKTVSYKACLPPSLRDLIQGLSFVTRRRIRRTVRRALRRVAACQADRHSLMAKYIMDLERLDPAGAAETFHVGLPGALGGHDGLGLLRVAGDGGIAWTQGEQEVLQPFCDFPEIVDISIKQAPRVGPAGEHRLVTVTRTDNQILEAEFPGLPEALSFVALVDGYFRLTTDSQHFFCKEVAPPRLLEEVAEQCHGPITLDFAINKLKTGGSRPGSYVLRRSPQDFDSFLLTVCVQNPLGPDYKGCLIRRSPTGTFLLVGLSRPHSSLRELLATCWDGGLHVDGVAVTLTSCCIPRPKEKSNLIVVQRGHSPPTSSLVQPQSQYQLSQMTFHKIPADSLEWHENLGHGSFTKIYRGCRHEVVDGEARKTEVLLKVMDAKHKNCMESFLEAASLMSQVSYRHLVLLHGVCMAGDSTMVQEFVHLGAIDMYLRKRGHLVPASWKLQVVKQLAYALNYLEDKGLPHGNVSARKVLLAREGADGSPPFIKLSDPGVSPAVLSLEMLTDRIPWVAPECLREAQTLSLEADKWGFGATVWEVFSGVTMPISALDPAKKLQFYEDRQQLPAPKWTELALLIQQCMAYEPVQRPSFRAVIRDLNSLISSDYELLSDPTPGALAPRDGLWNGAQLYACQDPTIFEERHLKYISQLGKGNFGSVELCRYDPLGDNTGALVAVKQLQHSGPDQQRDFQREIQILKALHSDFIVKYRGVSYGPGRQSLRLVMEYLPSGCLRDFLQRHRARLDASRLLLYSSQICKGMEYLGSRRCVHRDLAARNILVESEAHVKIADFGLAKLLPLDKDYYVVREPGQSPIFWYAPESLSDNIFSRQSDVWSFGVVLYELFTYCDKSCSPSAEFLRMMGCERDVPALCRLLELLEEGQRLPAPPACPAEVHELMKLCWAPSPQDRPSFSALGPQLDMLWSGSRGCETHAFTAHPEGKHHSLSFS
Put plainly: kinase profile, radiometric assay, JAK3. It is filed as biochemical. As to the method: as §1, §2

For experiment [4], the target named is T4, MEK1(h) (Homo sapiens, UniProt Q02750).
T4 construct: purchased Eurofins, Dundee, Scotland
T4 sequence (Q02750 whole entry): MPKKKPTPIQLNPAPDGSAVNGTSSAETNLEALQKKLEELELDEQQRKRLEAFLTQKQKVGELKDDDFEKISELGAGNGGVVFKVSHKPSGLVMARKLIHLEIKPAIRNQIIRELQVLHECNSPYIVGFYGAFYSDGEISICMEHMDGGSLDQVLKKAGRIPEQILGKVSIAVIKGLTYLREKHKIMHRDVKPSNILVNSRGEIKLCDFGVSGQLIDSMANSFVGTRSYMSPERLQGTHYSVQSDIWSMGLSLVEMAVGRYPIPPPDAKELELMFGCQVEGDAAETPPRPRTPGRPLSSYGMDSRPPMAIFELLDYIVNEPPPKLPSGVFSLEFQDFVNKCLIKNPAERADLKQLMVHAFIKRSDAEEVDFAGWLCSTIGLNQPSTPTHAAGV
Put plainly: kinase profile, radiometric assay, MEK1. It is filed as biochemical. As to the method:
as §1, §2

Experiment [5] deals with T5, Aurora-B(h) (Homo sapiens, UniProt Q96GD4).
T5 construct: purchased Eurofins, Dundee, Scotland
Description: kinase profile, radiometric assay, Aurora-B. It is filed as biochemical. As to the method: as §1, §2

In experiment [6] the target is T6, ALK(h) (Homo sapiens, UniProt Q9UM73).
T6 construct: purchased Eurofins, Dundee, Scotland
Put plainly: kinase profile, radiometric assay, ALK. The class given is biochemical. As to the method: as §1, §2

Experiment [7] has as its target T7, ErbB2(h) (Homo sapiens, UniProt P04626).
T7 construct: purchased Eurofins, Dundee, Scotland
Description: kinase profile, radiometric assay, ErbB2. It is filed as biochemical. On the procedure: as §1, §2

Experiment [8] addresses T8, MEKK2(h) (Homo sapiens, UniProt Q9Y2U5).
T8 construct: purchased Eurofins, Dundee, Scotland
T8 sequence (Q9Y2U5 1-619): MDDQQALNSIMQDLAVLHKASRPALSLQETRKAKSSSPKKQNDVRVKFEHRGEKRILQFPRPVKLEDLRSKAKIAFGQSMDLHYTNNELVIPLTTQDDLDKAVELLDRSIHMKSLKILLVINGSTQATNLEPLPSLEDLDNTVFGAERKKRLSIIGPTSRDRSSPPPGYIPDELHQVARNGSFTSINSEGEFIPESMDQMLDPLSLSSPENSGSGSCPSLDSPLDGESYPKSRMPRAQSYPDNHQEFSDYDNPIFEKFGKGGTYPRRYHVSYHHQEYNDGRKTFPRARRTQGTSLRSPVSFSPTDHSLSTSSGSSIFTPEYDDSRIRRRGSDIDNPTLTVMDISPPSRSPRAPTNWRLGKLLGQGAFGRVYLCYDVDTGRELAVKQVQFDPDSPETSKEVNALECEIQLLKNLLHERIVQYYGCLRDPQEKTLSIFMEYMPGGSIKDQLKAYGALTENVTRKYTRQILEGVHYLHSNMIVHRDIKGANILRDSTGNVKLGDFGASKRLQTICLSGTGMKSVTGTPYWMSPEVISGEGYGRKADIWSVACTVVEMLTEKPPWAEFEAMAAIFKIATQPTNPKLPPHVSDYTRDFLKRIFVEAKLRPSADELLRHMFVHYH
Description: kinase profile, radiometric assay, MEKK2. It is filed as biochemical. On the procedure:
as §1, §2

Experiment [9] relates to PI3 Kinase (p110β/p85α)(h). Put plainly: kinase profile, non-radiometric HTRF assay, PI3 kinases. The class given is biochemical, human. To be noted: at 1 μM. (In general: TR-FRET usually uses a lanthanide donor and a delayed reading to cut background.)
Experiment [10] addresses T9, JAK2(h) (Homo sapiens, UniProt O60674).
T9 construct: purchased Eurofins, Dundee, Scotland
Description: kinase profile, radiometric assay, JAK2. It is filed as biochemical. On the procedure:
as §1, §2

The target of experiment [11] is T10, Src(1-530)(h) (Homo sapiens, UniProt P12931).
T10 construct: Src(1-530)
Put plainly: kinase profile, radiometric assay, Src(1-530). It is filed as biochemical. On the procedure: as §1, §2

The target in experiment [12] is T11, CLK4(h) (Homo sapiens, UniProt Q9HAZ1).
T11 construct: purchased Eurofins, Dundee, Scotland
T11 sequence (Q9HAZ1 whole entry): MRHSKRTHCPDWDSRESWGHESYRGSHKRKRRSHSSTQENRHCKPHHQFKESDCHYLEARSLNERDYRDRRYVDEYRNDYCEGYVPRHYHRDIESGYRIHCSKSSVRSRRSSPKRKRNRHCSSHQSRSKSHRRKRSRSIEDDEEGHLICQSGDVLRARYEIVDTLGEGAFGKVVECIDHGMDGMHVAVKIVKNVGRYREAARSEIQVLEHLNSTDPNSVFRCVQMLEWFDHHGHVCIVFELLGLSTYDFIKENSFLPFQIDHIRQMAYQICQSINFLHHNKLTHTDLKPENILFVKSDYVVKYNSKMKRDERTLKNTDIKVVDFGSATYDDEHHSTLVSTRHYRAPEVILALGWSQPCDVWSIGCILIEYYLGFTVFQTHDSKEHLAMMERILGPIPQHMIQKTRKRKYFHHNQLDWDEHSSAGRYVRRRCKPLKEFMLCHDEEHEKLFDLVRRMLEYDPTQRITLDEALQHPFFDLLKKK
Description: radiometric protein kinase assay, CLK4. To be noted: enzyme inhibition, ATP 10 μM. The class given is biochemical. On the procedure: as §1, §2

Experiment [13] addresses T12, Fms(h) (Homo sapiens, UniProt P07333).
T12 construct: purchased Eurofins, Dundee, Scotland
Description: kinase profile, radiometric assay, Fms. The class given is biochemical. As to the method: as §1, §2

[14] abbreviates: first of three lines printed with this name (r24).
The mark [15] stands for this setting: second of three lines with this name.
Setting [16] is: third of three lines printed with this name (r26).

Structures are written as SMILES.

T12 sequence (P07333 20-972): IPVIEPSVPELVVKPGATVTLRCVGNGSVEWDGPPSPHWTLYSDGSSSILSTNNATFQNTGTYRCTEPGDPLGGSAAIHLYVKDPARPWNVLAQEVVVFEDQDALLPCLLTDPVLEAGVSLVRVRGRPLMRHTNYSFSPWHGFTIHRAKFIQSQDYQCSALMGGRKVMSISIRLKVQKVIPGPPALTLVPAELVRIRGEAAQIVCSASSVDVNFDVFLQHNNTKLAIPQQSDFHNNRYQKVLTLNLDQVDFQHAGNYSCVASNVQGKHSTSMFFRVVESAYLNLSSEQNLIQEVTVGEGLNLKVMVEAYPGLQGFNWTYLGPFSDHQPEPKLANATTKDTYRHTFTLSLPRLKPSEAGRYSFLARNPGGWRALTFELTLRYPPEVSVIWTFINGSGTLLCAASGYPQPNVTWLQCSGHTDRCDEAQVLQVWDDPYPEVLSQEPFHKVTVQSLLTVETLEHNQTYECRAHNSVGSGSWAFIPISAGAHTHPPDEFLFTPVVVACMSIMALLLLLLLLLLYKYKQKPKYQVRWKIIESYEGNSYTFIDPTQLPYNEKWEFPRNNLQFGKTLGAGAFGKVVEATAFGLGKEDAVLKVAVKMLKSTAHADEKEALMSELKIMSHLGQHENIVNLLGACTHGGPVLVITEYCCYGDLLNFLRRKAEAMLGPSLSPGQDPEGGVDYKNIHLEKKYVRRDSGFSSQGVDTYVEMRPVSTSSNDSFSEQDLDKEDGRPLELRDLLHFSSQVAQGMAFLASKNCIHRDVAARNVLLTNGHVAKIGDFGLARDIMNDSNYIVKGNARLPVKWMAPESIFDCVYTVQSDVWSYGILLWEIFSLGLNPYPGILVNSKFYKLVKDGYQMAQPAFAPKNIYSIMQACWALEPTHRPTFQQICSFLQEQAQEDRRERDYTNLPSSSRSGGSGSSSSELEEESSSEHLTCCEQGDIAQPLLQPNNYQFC
T9 sequence (O60674 whole entry): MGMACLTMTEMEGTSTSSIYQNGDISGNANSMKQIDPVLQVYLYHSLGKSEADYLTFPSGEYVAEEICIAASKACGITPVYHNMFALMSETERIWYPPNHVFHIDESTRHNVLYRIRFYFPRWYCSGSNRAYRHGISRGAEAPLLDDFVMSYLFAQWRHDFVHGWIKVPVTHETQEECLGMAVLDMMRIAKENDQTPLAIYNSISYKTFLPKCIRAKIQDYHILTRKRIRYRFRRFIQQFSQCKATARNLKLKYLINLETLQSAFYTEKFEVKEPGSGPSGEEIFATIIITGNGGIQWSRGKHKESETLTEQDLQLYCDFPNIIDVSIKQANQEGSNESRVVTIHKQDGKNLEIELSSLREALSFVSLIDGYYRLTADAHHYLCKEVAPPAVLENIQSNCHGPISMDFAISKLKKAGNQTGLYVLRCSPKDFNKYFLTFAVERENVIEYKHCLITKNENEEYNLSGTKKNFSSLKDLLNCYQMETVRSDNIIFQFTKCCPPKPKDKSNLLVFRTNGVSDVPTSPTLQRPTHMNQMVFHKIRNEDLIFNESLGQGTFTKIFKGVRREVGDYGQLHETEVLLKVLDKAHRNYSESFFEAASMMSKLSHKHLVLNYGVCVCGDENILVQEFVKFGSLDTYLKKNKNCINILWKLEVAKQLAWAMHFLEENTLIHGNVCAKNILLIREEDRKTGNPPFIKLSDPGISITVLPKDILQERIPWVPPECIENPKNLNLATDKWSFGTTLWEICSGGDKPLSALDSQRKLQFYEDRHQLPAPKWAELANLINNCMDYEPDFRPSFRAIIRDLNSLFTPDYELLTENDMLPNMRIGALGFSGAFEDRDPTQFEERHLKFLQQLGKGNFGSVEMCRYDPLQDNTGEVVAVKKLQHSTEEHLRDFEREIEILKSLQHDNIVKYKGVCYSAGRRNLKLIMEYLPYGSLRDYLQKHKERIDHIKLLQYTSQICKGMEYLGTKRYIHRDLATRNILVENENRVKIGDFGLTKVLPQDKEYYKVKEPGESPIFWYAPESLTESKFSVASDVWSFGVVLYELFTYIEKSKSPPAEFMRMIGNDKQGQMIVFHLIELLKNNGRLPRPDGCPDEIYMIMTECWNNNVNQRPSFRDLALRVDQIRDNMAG
T2 sequence (P15056 whole entry): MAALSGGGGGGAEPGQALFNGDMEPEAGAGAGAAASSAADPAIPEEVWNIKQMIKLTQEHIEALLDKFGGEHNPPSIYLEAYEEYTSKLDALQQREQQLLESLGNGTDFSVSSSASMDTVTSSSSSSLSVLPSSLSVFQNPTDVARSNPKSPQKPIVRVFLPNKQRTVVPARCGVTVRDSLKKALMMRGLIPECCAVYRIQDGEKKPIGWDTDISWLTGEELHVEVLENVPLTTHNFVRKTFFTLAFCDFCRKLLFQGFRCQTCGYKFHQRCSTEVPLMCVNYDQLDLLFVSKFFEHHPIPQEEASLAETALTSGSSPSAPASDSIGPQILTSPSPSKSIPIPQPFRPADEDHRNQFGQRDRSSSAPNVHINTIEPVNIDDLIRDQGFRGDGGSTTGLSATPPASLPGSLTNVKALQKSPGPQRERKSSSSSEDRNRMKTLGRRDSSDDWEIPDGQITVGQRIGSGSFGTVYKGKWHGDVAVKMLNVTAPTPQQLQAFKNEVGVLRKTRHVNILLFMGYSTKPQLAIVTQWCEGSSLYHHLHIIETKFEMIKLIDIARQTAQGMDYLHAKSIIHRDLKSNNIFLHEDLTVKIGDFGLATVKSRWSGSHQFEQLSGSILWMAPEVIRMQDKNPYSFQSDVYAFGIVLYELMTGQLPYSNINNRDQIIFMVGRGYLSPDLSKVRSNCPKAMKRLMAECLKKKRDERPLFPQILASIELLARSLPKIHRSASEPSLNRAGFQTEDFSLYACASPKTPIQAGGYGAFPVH
T7 sequence (P04626 23-1255): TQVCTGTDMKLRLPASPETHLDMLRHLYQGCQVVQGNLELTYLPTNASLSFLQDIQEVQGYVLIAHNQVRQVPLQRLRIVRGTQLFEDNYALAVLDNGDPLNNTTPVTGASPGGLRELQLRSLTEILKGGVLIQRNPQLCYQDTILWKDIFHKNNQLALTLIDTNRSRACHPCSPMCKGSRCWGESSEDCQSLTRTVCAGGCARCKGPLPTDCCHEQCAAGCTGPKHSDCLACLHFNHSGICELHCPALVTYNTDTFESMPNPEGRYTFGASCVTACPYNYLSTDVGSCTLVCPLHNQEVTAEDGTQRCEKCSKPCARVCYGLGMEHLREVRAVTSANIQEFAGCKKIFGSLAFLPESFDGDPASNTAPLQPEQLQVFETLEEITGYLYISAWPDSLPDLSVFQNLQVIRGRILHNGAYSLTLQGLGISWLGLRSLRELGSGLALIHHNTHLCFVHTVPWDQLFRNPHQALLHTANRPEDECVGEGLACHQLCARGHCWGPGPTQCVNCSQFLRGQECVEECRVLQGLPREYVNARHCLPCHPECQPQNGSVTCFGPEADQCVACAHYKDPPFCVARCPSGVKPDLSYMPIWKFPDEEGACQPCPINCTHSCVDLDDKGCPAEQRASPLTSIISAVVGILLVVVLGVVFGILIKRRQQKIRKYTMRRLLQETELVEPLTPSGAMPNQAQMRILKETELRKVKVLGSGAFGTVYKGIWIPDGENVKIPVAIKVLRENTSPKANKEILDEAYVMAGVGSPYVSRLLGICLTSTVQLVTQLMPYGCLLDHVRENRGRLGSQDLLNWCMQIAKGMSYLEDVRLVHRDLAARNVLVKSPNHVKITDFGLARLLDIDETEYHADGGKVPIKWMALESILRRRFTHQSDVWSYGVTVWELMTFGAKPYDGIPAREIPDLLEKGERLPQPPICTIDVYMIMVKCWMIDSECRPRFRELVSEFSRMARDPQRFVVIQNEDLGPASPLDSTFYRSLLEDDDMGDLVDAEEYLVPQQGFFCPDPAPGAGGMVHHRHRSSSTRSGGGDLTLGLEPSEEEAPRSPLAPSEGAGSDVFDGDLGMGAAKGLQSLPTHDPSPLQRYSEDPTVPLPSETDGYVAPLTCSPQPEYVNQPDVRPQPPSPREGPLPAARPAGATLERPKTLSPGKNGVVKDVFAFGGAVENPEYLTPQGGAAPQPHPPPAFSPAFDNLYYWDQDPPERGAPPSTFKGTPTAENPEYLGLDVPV

As to `CC(C)n1cnc2c(Nc3cc(N)cc(Cl)c3)nc(NC3CCCCC3N)nc21` (racemic) [Compound 14, Racemic N^6-Cis-(3-Amino-5-Chlorophenyl)-N^2-(2-Aminocyclohexyl)-9-Isopropyl-9H-Purine-2,6-Diamine], the inhibition (as a rule, the change of the read-out against control, counted positive when it falls) at 1 µM in [1] was 4%; in experiment [2], 5%; in experiment [3] it was 0%; in experiment [4], 6%; in experiment [5], -16%; in experiment [6], 10%. Further, the inhibition at 1 µM in [7] is 3%; in experiment [8], 48%; in [10], 8%; in experiment [11], 78%; in experiment [13], 9%. Further, the “% Inhibition PI3 Kinase (p110β/p85α)(h)” value in experiment [9] (setting [14]) came out at 4%; in experiment [9] (setting [15]), 0%; in [9] (setting [16]) it was 1%. In experiment [12], the IC50 (commonly the point on the concentration scale where inhibition reaches its midpoint) was 54 nM.
Turning to `CC(C)n1cnc2c(Nc3cccc(Cl)c3)nc(N[C@H]3CCCC[C@@H]3N)nc21` [Compound 8, N^2-((1S,2S)-2-Aminocyclohexyl)-V-(3-Chlorophenyl)-9-Isopropyl-9H-Purine-2,6-Diamine], the inhibition at 1 µM is 16% in experiment [1]; 10% in [2]; 0% in experiment [3]; 10% in experiment [4]; -15% in experiment [5]; 7% in experiment [6]. Further, the inhibition at 1 µM is 2% in experiment [7]; 47% in experiment [8]; -6% in experiment [10]; 22% in experiment [11]; -1% in experiment [13]. In addition, the “% Inhibition PI3 Kinase (p110β/p85α)(h)” value in [9] (setting [14]) came out at 5%; in experiment [9] (setting [15]), 2%; in experiment [9] (setting [16]), 2%. The molecule also yielded an IC50 in experiment [12] of 86 nM.
As to `CC(C)n1cnc2c(Nc3cccc(Cl)c3)nc(N[C@@H]3CCCC[C@@H]3N)nc21` [Compound 9, N^2-((1R,2S)-2-Aminocyclohexyl)-N^6-(3-Chlorophenyl)-9-Isopropyl-9H-Purine-2,6-Diamine], the inhibition at 1 µM in experiment [1] is -6%; in [2], 21%; in [3], 4%; in experiment [4], 8%; in experiment [5], -16%; in experiment [6], -2%. Also, the inhibition at 1 µM is 0% in [7]; 18% in [8]; 2% in experiment [10]; 69% in experiment [11]; -16% in [13]. Moreover, the “% Inhibition PI3 Kinase (p110β/p85α)(h)” value is 4% in experiment [9] (setting [14]), 3% in [9] (setting [15]) and 5% in experiment [9] (setting [16]). The IC50 in experiment [12] turned out to be 50 nM.

The values above are taken from patent US10722515B2, “Dual CLK/CDK1 inhibitors for cancer treatment” (SRI INTERNATIONAL, priority 2016, dated 2020).
